ChEMBL document CHEMBL1201862, “PubChem BioAssay data set” (2004)
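Five concentrations, 48 hours, 96-well plates. Abbreviation: GI50, concentration required for 50% inhibition of growth.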 Calls of active or inactive are those of the source. No stated cut-off is given here; in the data, active = GI50 up to about 1.1 µM and inactive = higher.

Legend:
Assay in all cases: inhibition of tumour cell growth, NCI panel, 48 h
786-0 = tested on: 786-0
CCRF-CEM = tested on: CCRF-CEM
COLO 205 = tested on: COLO 205
EKVX = tested on: EKVX
HCT-15 = tested on: HCT-15
HT-29 = tested on: HT-29
LOX IMVI = tested on: LOX IMVI
M14 = tested on: M14
MOLT-4 = tested on: MOLT-4
NCI-H460 = tested on: NCI-H460
NCI/ADR-RES = tested on: NCI/ADR-RES
OVCAR-4 = tested on: OVCAR-4
OVCAR-5 = tested on: OVCAR-5
RPMI-8226 = tested on: RPMI-8226
SK-MEL-2 = tested on: SK-MEL-2
SNB-19 = tested on: SNB-19
SW-620 = tested on: SW-620
UACC-257 = tested on: UACC-257
HCC 2998 = tested on: HCC 2998
SK-OV-3 = tested on: SK-OV-3

Row | SMILES | GI50 (786-0) | GI50 (CCRF-CEM) | GI50 (COLO 205) | GI50 (EKVX) | GI50 (HCT-15) [µM] | GI50 (HT-29) | GI50 (LOX IMVI) | GI50 (M14) | GI50 (MOLT-4) | GI50 (NCI-H460) | GI50 (NCI/ADR-RES) | GI50 (OVCAR-4) | GI50 (OVCAR-5) | GI50 (RPMI-8226) | GI50 (SK-MEL-2) | GI50 (SNB-19) | GI50 (SW-620) | GI50 (UACC-257) | GI50 (HCC 2998) | GI50 (SK-OV-3)
1 | CCOC(=O)C(NC(=O)c1ccccc1)(Nc1ccc(S(=O)(=O)Nc2cc(C)nc(C)n2)cc1)C(F)(F)F (stereo not drawn) | > 100 µM (inactive) | > 100 µM (inactive) | > 100 µM (inactive) | > 100 µM (inactive) | > 100 | > 100 µM (inactive) | > 100 µM (inactive) | > 100 µM (inactive) | > 100 µM (inactive) | > 100 µM (inactive) | > 100 µM (inactive) | > 100 µM (inactive) | > 100 µM (inactive) | > 100 µM (inactive) | > 100 µM (inactive) | > 100 µM (inactive) | 56.1 µM (inactive) | > 100 µM (inactive) | – | –
2 | CCOC(=O)/C(=C/c1ccccn1)C(=O)c1ccccc1 | 12.8 µM (inactive) | 2.81 µM (inactive) | 14.2 µM (inactive) | 19.1 µM (inactive) | 13.2 | 13.9 µM (inactive) | 2.48 µM (inactive) | 15.1 µM (inactive) | 8.34 µM (inactive) | 23 µM (inactive) | – | 16.1 µM (inactive) | 19.1 µM (inactive) | 3.42 µM (inactive) | 13.9 µM (inactive) | 17.6 µM (inactive) | 14.2 µM (inactive) | 13.8 µM (inactive) | 17.3 µM (inactive) | 17.9 µM (inactive)
3 | Cc1ccc(C(=O)CC(Cl)=C(Cl)Cl)cc1 | 63.1 µM (inactive) | 25.8 µM (inactive) | > 100 µM (inactive) | – | 67.1 | > 100 µM (inactive) | 31.7 µM (inactive) | > 100 µM (inactive) | 20.5 µM (inactive) | > 100 µM (inactive) | > 100 µM (inactive) | 63.2 µM (inactive) | > 100 µM (inactive) | 29.2 µM (inactive) | > 100 µM (inactive) | > 100 µM (inactive) | > 100 µM (inactive) | 65.9 µM (inactive) | – | > 100 µM (inactive)
4 | C=C(C)C(=O)O[C@@H]1C/C(C)=C\[C@H](OC(C)=O)C[C@](C)(O)/C=C2/OC(=O)C(COC(C)=O)=C21 | 1.09 µM (active) | 0.0649 µM (active) | 0.238 µM (active) | 0.962 µM (active) | 0.212 | 0.237 µM (active) | 0.152 µM (active) | 0.673 µM (active) | 0.428 µM (active) | 0.695 µM (active) | – | 1.93 µM (inactive) | 1.99 µM (inactive) | 0.314 µM (active) | 2.87 µM (inactive) | 12.3 µM (inactive) | 0.216 µM (active) | 1.69 µM (inactive) | 0.399 µM (active) | 6.12 µM (inactive)
5 | CCOC(=O)CC1CCN(C(=O)c2ccccc2)C2Cc3c([nH]c4ccccc34)C12C[N+](=O)[O-] (stereo not drawn) | – | 12.6 µM (inactive) | 61 µM (inactive) | > 100 µM (inactive) | 95.7 | 62.2 µM (inactive) | > 100 µM (inactive) | 63.2 µM (inactive) | 35 µM (inactive) | 65.6 µM (inactive) | 49.4 µM (inactive) | > 100 µM (inactive) | > 100 µM (inactive) | – | > 100 µM (inactive) | – | > 100 µM (inactive) | > 100 µM (inactive) | – | > 100 µM (inactive)
6 | CO/C1=C\C(C)=C\C(C)C(O)C(C)C/C(C)=C/C=C/C(OC)C(C(C)C(O)C(C)C2(O)CC(O)C(C)C(C(C)C)O2)OC1=O (stereo not drawn) | 0.00331 µM (active) | 0.00119 µM (active) | 0.00343 µM (active) | 0.0566 µM (active) | 0.000143 | 6.64e-05 µM (active) | 1e-05 µM (active) | 0.000369 µM (active) | 0.0022 µM (active) | 0.000401 µM (active) | – | 0.01 µM (active) | 0.000491 µM (active) | 0.00151 µM (active) | 0.00453 µM (active) | 10.9 µM (inactive) | 0.000471 µM (active) | 0.00634 µM (active) | 0.000757 µM (active) | 0.684 µM (active)
7 | C/C=C/CP(=O)(c1ccccc1)c1ccccc1 | > 100 µM (inactive) | > 100 µM (inactive) | > 100 µM (inactive) | > 100 µM (inactive) | > 100 | > 100 µM (inactive) | > 100 µM (inactive) | > 100 µM (inactive) | > 100 µM (inactive) | > 100 µM (inactive) | – | > 100 µM (inactive) | > 100 µM (inactive) | > 100 µM (inactive) | > 100 µM (inactive) | > 100 µM (inactive) | > 100 µM (inactive) | > 100 µM (inactive) | > 100 µM (inactive) | > 100 µM (inactive)
8 | O=c1c2ccccc2sc2nc(O)nn12 | > 100 µM (inactive) | > 100 µM (inactive) | > 100 µM (inactive) | > 100 µM (inactive) | > 100 | > 100 µM (inactive) | > 100 µM (inactive) | > 100 µM (inactive) | > 100 µM (inactive) | > 100 µM (inactive) | – | > 100 µM (inactive) | > 100 µM (inactive) | > 100 µM (inactive) | > 100 µM (inactive) | > 100 µM (inactive) | > 100 µM (inactive) | > 100 µM (inactive) | > 100 µM (inactive) | > 100 µM (inactive)
9 | O=C(CSC1=NCCN1)c1ccccc1 | > 100 µM (inactive) | – | > 100 µM (inactive) | > 100 µM (inactive) | > 100 | > 100 µM (inactive) | > 100 µM (inactive) | > 100 µM (inactive) | > 100 µM (inactive) | > 100 µM (inactive) | > 100 µM (inactive) | > 100 µM (inactive) | > 100 µM (inactive) | > 100 µM (inactive) | > 100 µM (inactive) | > 100 µM (inactive) | > 100 µM (inactive) | > 100 µM (inactive) | – | > 100 µM (inactive)
10 | CCC1C2Cc3ccc(O)cc3C1(CC)CCN2C (stereo not drawn) | > 100 µM (inactive) | > 100 µM (inactive) | > 100 µM (inactive) | > 100 µM (inactive) | > 100 | > 100 µM (inactive) | > 100 µM (inactive) | > 100 µM (inactive) | > 100 µM (inactive) | > 100 µM (inactive) | > 100 µM (inactive) | > 100 µM (inactive) | > 100 µM (inactive) | > 100 µM (inactive) | > 100 µM (inactive) | > 100 µM (inactive) | > 100 µM (inactive) | 77.3 µM (inactive) | – | > 100 µM (inactive)
11 | O=C1CSSCC(=O)Nc2ccccc2N1 | > 100 µM (inactive) | > 100 µM (inactive) | > 100 µM (inactive) | > 100 µM (inactive) | > 100 | > 100 µM (inactive) | > 100 µM (inactive) | > 100 µM (inactive) | 55.6 µM (inactive) | > 100 µM (inactive) | > 100 µM (inactive) | > 100 µM (inactive) | > 100 µM (inactive) | > 100 µM (inactive) | > 100 µM (inactive) | > 100 µM (inactive) | > 100 µM (inactive) | > 100 µM (inactive) | – | > 100 µM (inactive)
